Reference: paper PMC11993615, “Design, synthesis and optimization of TarO inhibitors as multifunctional antibiotics against Methicillin-resistant Staphylococcus aureus” (npj Antimicrobials and Resistance, 2025)

Tests used:
TarO = TarO (Staphylococcus aureus, UniProt Q2G060); type: cell-based; conditions: for IC50: relative inhibition rate against the wild-type strain, OD600 at 20 h, n.a. = IC50 cannot be calculated within the test range; for TarO inhibitory activity (in words): SAR discussion
USA300 LAC [1] = assay: Checkerboard MIC assay with oxacillin; type: cell-based, Staphylococcus aureus; conditions: for FICI / Sensitization fold / Minimum sensitization concentration: USA300 LAC/oxacillin; for Minimum sensitization concentration: test range 0.03–32 μg/mL
Procedure: (§1) In the checkerboard assay, concentrations of antibiotics, oxacillin and imipenem, and TarO inhibitors were simultaneously varied across columns and the rows, respectively. […] The range of each compound chosen for the checkerboard assay was according to their MIC value. […] For each clear well observed on the checkerboard MIC plate, the fractional inhibitory concentration index (FICI) was calculated as follows: FICI = FIC (inhibitor) + FIC (antibiotic) = MIC inhibitor in combination/ MIC inhibitor alone + MIC antibiotic in combination/MIC antibiotic alone. FIC = Fractional Inhibitory Concentration. A FICI value of < 0.5 indicates synergy, a value between 0.5 and 2 indicates additivity or indifference, and a value > 2 indicates antagonism.

[2] = tested on: S.aureus USA300 LAC biofilm; assay: Static biofilm inhibition assay (crystal violet); type: cell-based, Staphylococcus aureus
HS663 [3] = assay: MIC determination, broth microdilution; conditions: Staphylococcus aureus
[4] = Preliminary liver microsomal stability testing; type: in vitro ADME, Mouse
Procedure: 6. Supplementary Ta b l e 3: Preliminary liver microsomal stability testing of Ta r O
Compounds Species T1/2 Clint In Vitro MF […]
a MF: metabolic bioavailability.
Microsomes in 0.1 M TRIS buffer pH 7.4 (final concentration 0.33 mg/mL), co- factor MgCl2 (final concentration 5 mM) and tested compound (final concentration 0.1 μM, co-solvent 0.01% DMSO and 0.005% Bovin serum albumin BSA) were incubated at 37°C for 10 min. The reaction was started by the addition of NADPH (final concentration 1 mM). Aliquots were sampled at 0, 5, 15, 30 and 60 min respectively and methanol (cold in wet ice) was added to terminate the reaction.
After centrifugation (4000rpm,5 min), samples were then analyzed by LC- MS/MS.

HS663 [5] = assay: Checkerboard MIC assay with imipenem; type: cell-based, Staphylococcus aureus
Procedure: as §1

USA400 MW2 [6] = assay: Checkerboard MIC assay with oxacillin; type: cell-based, Staphylococcus aureus
Procedure: as §1

USA400 MW2 [7] = assay: MIC determination, broth microdilution; conditions: Staphylococcus aureus
[8] = Cytotoxicity assay (Sulforhodamine B); type: cell-based; conditions: human
Procedure: The cytotoxicity was detected by Sulforhodamine B method. The human pancreatic cancer cell line Capan-1, human colon cancer cell line HCT-116 and human lung adenocarcinoma cell line NCI-H1373 were purchased from American Type Culture Collection (ATCC; Manassas, VA) and inoculated into 96-well plates in triplicate. The cells were treated with different concentrations of compounds in humidified incubator containing 5% CO2 for 72 h when they reached 70%-80% confluence. Vincristine was added as a positive control. Then, SRB staining agent was added and microplate analyzer was used to read the absorbance at 450 nm wavelength. The cytotoxicity of each compound is expressed as the concentration of the compound that reduces cell viability to 50% (IC50). The optical density (OD) at a wavelength of 450 nm was measured using an SpectraMax 190 Microplate Reader (Molecular Devices; USA). The IC50 value was calculated by the Logit method using Graphpad Prism 9.1.

USA300 LAC [9] = assay: MIC determination, broth microdilution; conditions: Staphylococcus aureus
[10] = at maximum sensitization concentration
[11] = at minimum sensitization concentration
[12] = HS663/imipenem, at maximum sensitization concentration
[13] = HS663/imipenem, at minimum sensitization concentration
[14] = HS663/imipenem, test range 0.03–32 μg/mL
[15] = USA400 MW2/oxacillin, at maximum sensitization concentration
[16] = USA400 MW2/oxacillin, at minimum sensitization concentration
[17] = USA400 MW2/oxacillin, test range 0.03–32 μg/mL

C[C@H]1[C@@H](c2cc(C(F)(F)F)cc(C(F)(F)F)c2)OC(=O)N1C(=O)OCc1cccc2ccccc12 [Compound 1]
IC50 (TarO): 0.161 µM | FICI (USA300 LAC [1]; [10]): < 0.07 | Sensitization fold (USA300 LAC [1]; [10]): 16 | Sensitization fold (USA300 LAC [1]; [11]): 8 | Minimum sensitization concentration (USA300 LAC [1]): 0.06 µg/mL

C[C@H]1[C@@H](c2cc(C(F)(F)F)cc(C(F)(F)F)c2)OC(=O)N1C(=O)SCc1cccc2ccccc12 [Compound 2]
TarO inhibitory activity (in words) (TarO): potent TarO inhibitory activity | IC50 (TarO): 0.0974 µM | FICI (USA300 LAC [1]; [10]): < 0.04 | Sensitization fold (USA300 LAC [1]; [10]): 32 | Sensitization fold (USA300 LAC [1]; [11]): 8 | Minimum sensitization concentration (USA300 LAC [1]): 0.06 µg/mL

C[C@H]1[C@@H](c2cc(C(F)(F)F)cc(C(F)(F)F)c2)OC(=O)N1C(=S)NCc1cccc2ccccc12 [Compound 5]
IC50 (TarO): 8.98 µM | FICI (USA300 LAC [1]; [10]): < 0.13 | Sensitization fold (USA300 LAC [1]; [10]): 8 | Sensitization fold (USA300 LAC [1]; [11]): 8 | Minimum sensitization concentration (USA300 LAC [1]): 0.25 µg/mL

C[C@H]1[C@@H](c2cc(C(F)(F)F)cc(C(F)(F)F)c2)OC(=O)N1C(=O)N1CC(c2cccc3ccccc23)C1 [Compound 6]
TarO inhibitory activity (in words) (TarO): loss of activity

C[C@H]1[C@@H](c2cc(C(F)(F)F)cc(C(F)(F)F)c2)OC(=O)N1C(=O)CNc1cccc2ccccc12 [Compound 7]
IC50 (TarO): 7.19 µM

C[C@H]1[C@@H](c2cc(C(F)(F)F)cc(C(F)(F)F)c2)OC(=O)N1C(=O)CCC1CCCCC1 [Compound 8]
TarO inhibitory activity (in words) (TarO): inactive

C[C@H]1[C@@H](c2cc(C(F)(F)F)cc(C(F)(F)F)c2)OC(=O)N1C(=O)CCN1CCS(=O)(=O)c2ccccc21 [Compound 9]
TarO inhibitory activity (in words) (TarO): potent inhibition activity comparable to Tarocin A | IC50 (TarO): 6.32 µM

C[C@H]1[C@@H](c2cc(C(F)(F)F)cc(C(F)(F)F)c2)OC(=O)N1C(=O)CCN1CCCc2ccccc21 [Compound 10]
inhibition of biofilm formation ([2]; 0.125 μg/mL): near a half | inhibition at 0.5 µg/mL ([2]; Staphylococcus aureus, USA300, read-out: inhibition of biofilm formation): > 90% | MIC (HS663 [3]): > 256 µg/mL | Clint In Vitro ([4]; Mouse liver microsomes): 1779 mL/min/gprot | Comments (metabolic stability) ([4]; Mouse liver microsomes): poor | half-life at 0.1 μM ([4]; pH 7.4, Mouse liver microsomes 0.33 mg/mL, 0.1 μM compound): 1.18 min | FICI (HS663 [5]; [12]): <0.02 | Sensitization fold (HS663 [5]; [12]): 64 | FICI (HS663 [5]; [13]): <0.13 | Sensitization fold (HS663 [5]; [13]): 8 | Maximum sensitization concentration (HS663 [5]; [14]): 0.25 µg/mL | Minimum sensitization concentration (HS663 [5]; [14]): 0.03 µg/mL | MIC of β-lactam, combined (HS663 [5]; imipenem with TarO inhibitor at maximum sensitization concentration, HS663): 1 µg/mL | MIC of β-lactam, combined (HS663 [5]; imipenem with TarO inhibitor at minimum sensitization concentration, HS663): 8 µg/mL | IC50 (TarO): 0.14 µM | FICI (USA300 LAC [1]; [10]): <0.07 | Sensitization fold (USA300 LAC [1]; [10]): 16 | FICI (USA300 LAC [1]; [11]): <0.13 | Sensitization fold (USA300 LAC [1]; [11]): 8 | Minimum sensitization concentration (USA300 LAC [1]): 0.03 µg/mL | FICI (USA400 MW2 [6]; [15]): <0.07 | Sensitization fold (USA400 MW2 [6]; [15]): 16 | FICI (USA400 MW2 [6]; [16]): <0.13 | Sensitization fold (USA400 MW2 [6]; [16]): 8 | Maximum sensitization concentration (USA400 MW2 [6]; [17]): 0.12 µg/mL | Minimum sensitization concentration (USA400 MW2 [6]; [17]): 0.03 µg/mL | MIC of β-lactam, combined (USA400 MW2 [6]; oxacillin with TarO inhibitor at maximum sensitization concentration, USA400 MW2): 1 µg/mL | MIC of β-lactam, combined (USA400 MW2 [6]; oxacillin with TarO inhibitor at minimum sensitization concentration, USA400 MW2): 2 µg/mL | MIC (USA400 MW2 [7]): > 256 µg/mL | IC50 at 72 h ([8]; Capan-1 cells (human pancreatic cancer cell line), Capan-1, 72 h): > 20 µM | IC50 at 72 h ([8]; HCT-116 cells (human colon cancer cell line), HCT-116, 72 h): > 20 µM | IC50 at 72 h ([8]; NCI-H1373 cells (human lung adenocarcinoma cell line), NCI-H1373, 72 h): > 20 µM | MIC (USA300 LAC [9]): > 256 µg/mL

C[C@H]1[C@@H](c2cc(C(F)(F)F)cc(C(F)(F)F)c2)OC(=O)N1C(=O)CCN1CCOc2ccccc21 [Compound 11]
IC50 (TarO): 1.99 µM | FICI (USA300 LAC [1]; [10]): < 0.07 | Sensitization fold (USA300 LAC [1]; [10]): 16 | Sensitization fold (USA300 LAC [1]; [11]): 4 | Minimum sensitization concentration (USA300 LAC [1]): 0.03 µg/mL

C[C@H]1[C@@H](c2cc(C(F)(F)F)cc(C(F)(F)F)c2)OC(=O)N1C(=O)CCN1CCC(=O)c2ccccc21 [Compound 12]
IC50 (TarO): 5.05 µM

C[C@H]1[C@@H](c2cc(C(F)(F)F)cc(C(F)(F)F)c2)OC(=O)N1C(=O)CCc1cccc2c1OCCC2=O [Compound 14]
IC50 (TarO): 4.04 µM | FICI (USA300 LAC [1]; [10]): < 0.08 | Sensitization fold (USA300 LAC [1]; [10]): 16 | Sensitization fold (USA300 LAC [1]; [11]): 8 | Minimum sensitization concentration (USA300 LAC [1]): 0.25 µg/mL

C[C@H]1[C@@H](c2cc(C(F)(F)F)cc(C(F)(F)F)c2)OC(=O)N1C(=O)CCn1ccc(=O)c2ccccc21 [Compound 17a]
IC50 (TarO): 4.08 µM | FICI (USA300 LAC [1]; [10]): < 0.13 | Sensitization fold (USA300 LAC [1]; [10]): 1024 | FICI (USA300 LAC [1]; [11]): < 0.15 | Sensitization fold (USA300 LAC [1]; [11]): 8 | Minimum sensitization concentration (USA300 LAC [1]): 4 µg/mL

COc1cc(C(F)(F)F)cc([C@H]2OC(=O)N(C(=O)CCn3ccc(=O)c4ccccc43)[C@H]2C)n1 [Compound 17b]
IC50 (TarO): 22.4 µM

C[C@H]1[C@@H](c2cc(F)cc(C(F)(F)F)c2)OC(=O)N1C(=O)CCn1ccc(=O)c2ccccc21 [Compound 17c]
IC50 (TarO): 27.8 µM

C[C@H]1[C@@H](c2cccc(C(F)(F)F)c2)OC(=O)N1C(=O)CCn1ccc(=O)c2ccccc21 [Compound 17d]
IC50 (TarO): 30.2 µM

C[C@H]1[C@@H](c2cc(C(F)(F)F)cc(C(F)(F)F)c2)OC(=O)N1C(=O)CCN1CCS(=O)(=O)CC1 [Compound 19]
TarO inhibitory activity (in words) (TarO): lost its activity

C[C@H]1[C@@H](c2cc(C(F)(F)F)cc(C(F)(F)F)c2)OC(=O)N1C(=O)CCc1cccc2c1OCC/C2=N\O [Compound 23]
IC50 (TarO): 7.54 µM

C[C@H]1[C@@H](c2cccc(C(F)(F)F)c2)OC(=O)N1C(=O)NCc1cncc2ccccc12 [Tarocin A2, reference compound]
IC50 (TarO): 24.2 µM

C[C@@H](O)[C@H]1C(=O)N2C(C(=O)O)=C(SCCN=CN)C[C@H]12 [imipenem, reference compound]
MIC (HS663 [5]; Staphylococcus aureus, imipenem used alone, HS663, read-out: MIC of β-lactam, Individual): 64 µg/mL | MIC of β-lactam, Individual (HS663 [5]; imipenem used alone, HS663): 64 µg/mL

Cc1onc(-c2ccccc2)c1C(=O)N[C@@H]1C(=O)N2[C@@H]1SC(C)(C)[C@@H]2C(=O)O [oxacillin, reference compound]
MIC (USA300 LAC [1]; Staphylococcus aureus, oxacillin used alone, USA300 LAC, read-out: MIC of β-lactam, Individual): 64 µg/mL | MIC of β-lactam, Individual (USA300 LAC [1]; oxacillin used alone, USA300 LAC): 64 µg/mL | MIC (USA400 MW2 [6]; Staphylococcus aureus, oxacillin used alone, USA400 MW2, read-out: MIC of β-lactam, Individual): 16 µg/mL | MIC of β-lactam, Individual (USA400 MW2 [6]; oxacillin used alone, USA400 MW2): 16 µg/mL

tunicamycin [reference compound]
induction of vraXpro-lux expression (TarO; MRSA USA300 LAC strain, exponential growth phase): concentration-dependent manner | bacterial growth density (OD600) (TarO; post-exponential growth phase): effectively reduced the bacterial growth density
